For one test, the system named is A549. The test is described as follows: Antiproliferative activity against human A549 cells expressing wild type p53 after 72 hrs by MTT assay. To be noted: A549, 72 h. A general note: Tetrazolium assays rely on reduction of a dye to a coloured formazan, in cell work by metabolically active cells.
A further test deals with U2OS. The test is described as follows: Antiproliferative activity against human U2OS cells expressing wild type p53 after 72 hrs by MTT assay.
A further test deals with NCI-H1299. The experiment in a line: Antiproliferative activity against human p53-deficient NCI-H1299 cells after 72 hrs by MTT assay. To be noted: NCI-H1299, 72 h.
A further test has as its system SAOS-2. The experiment in a line: Antiproliferative activity against human p53-deficient Saos2 cells after 72 hrs by MTT assay. The settings on record: SAOS-2, 72 h.
Test [1] addresses E3 ubiquitin-protein ligase Mdm2 (Homo sapiens, UniProt Q00987). The test is described as follows: Inhibition of MDM2 binding domain assessed as inhibition of p53 binding to MDM2 after 1 hr by fluorescence polarization assay. For orientation: Fluorescence polarisation rises when a labelled molecule tumbles more slowly, as on binding a larger partner.

The source of these data is ChEMBL document CHEMBL2086350, “Structure-activity relationship and antitumor activity of thio-benzodiazepines as p53-MDM2 protein-protein interaction inhibitors” (Eur J Med Chem, 2012).

A value given as a limit tells only on which side of the number the result lay.

E3 ubiquitin-protein ligase Mdm2, sequence (Q00987 whole entry, the tested form may be a part): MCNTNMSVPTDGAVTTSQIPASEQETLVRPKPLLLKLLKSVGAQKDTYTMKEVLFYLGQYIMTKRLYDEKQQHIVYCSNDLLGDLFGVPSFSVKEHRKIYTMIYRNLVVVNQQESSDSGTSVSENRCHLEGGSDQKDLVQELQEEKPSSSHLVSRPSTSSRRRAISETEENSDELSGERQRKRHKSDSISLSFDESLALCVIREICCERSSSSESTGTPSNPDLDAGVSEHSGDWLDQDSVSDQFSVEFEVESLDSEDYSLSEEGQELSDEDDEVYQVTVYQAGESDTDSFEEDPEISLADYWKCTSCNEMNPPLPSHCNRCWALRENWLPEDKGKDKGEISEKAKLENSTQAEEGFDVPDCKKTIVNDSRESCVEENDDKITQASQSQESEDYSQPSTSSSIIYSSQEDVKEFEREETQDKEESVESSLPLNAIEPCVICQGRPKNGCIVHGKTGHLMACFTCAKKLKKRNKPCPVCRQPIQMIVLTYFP

Broadly, the IC50 is the midpoint of a concentration-inhibition curve. Usually Ki stands for the equilibrium dissociation constant of an inhibitor or competing ligand from its target. As for `COC(=O)C(c1ccc(Cl)cc1)N1C(=O)c2ccc(NCc3ccc(C(F)(F)F)cc3)cc2NC(=S)C1c1ccc(Cl)cc1` (centres undefined), the concentration for half-maximal inhibition (IC50) with A549 is 25.7 µM; with U2OS it was 15.9 µM; in the test with NCI-H1299 it was 42.6 µM; in the test with SAOS-2, 25.3 µM. In addition, the Ki in test [1] amounted to 6.7 µM.
For `COC(=O)C(c1ccc(Cl)cc1)N1C(=O)c2ccc(Cl)cc2NC(=S)C1c1ccc(Cl)cc1` (centres undefined), in that order: 37.2 µM, 12.1 µM, 16.5 µM, 11.1 µM and 1.37 µM.
With `COC(=O)C(c1ccc(Cl)cc1)N1C(=O)c2cccc(Cl)c2NC(=S)C1c1ccc(Cl)cc1` (centres undefined), the IC50 with A549 is over 100 µM; in the test on U2OS, 88.5 µM; with NCI-H1299, over 100 µM; with SAOS-2, 61.8 µM. Besides, the Ki in test [1] is over 100 µM.
For the compound `COC(=O)C(c1ccc(Cl)cc1)N1C(=O)c2cc(Cl)ccc2NC(=S)C1c1ccc(Cl)cc1` (centres undefined), the IC50 in the test on A549 came to 18.7 µM; in the test on U2OS, 3.5 µM; in the test with NCI-H1299, 24.7 µM; in the test on SAOS-2, 8.91 µM. In addition, in test [1], the Ki is 0.721 µM.
As to `COC(=O)C(c1ccc(Cl)cc1)N1C(=O)c2ccc(F)cc2NC(=S)C1c1ccc(Cl)cc1` (centres undefined), the IC50 turned out to be 8.44 µM in the test with A549, 12 µM with U2OS, 16.5 µM in the test with NCI-H1299 and 6.59 µM in the test with SAOS-2.
As for `COC(=O)C(c1ccc(Cl)cc1)N1C(=O)c2cc(F)c(F)cc2NC(=S)C1c1ccc(Cl)cc1` (centres undefined), the IC50 was 11.3 µM in the test with A549, 2.61 µM in the test with U2OS, 5.73 µM in the test with NCI-H1299 and 3.84 µM in the test on SAOS-2. In addition, the Ki in test [1] is over 100 µM.
Consider `COC(=O)C(c1ccc(F)cc1)N1C(=O)c2ccc(Cl)cc2NC(=S)C1c1ccc(F)cc1` (centres undefined), for which the IC50 is 25.6 µM in the test on A549, 44.3 µM in the test with U2OS, over 100 µM in the test on NCI-H1299 and 12.7 µM with SAOS-2. The Ki in test [1] was 1.72 µM.
On to `COC(=O)C(c1ccc(F)cc1)N1C(=O)c2cc(Cl)ccc2NC(=S)C1c1ccc(Cl)cc1` (centres undefined), for which the IC50 with A549 was determined as 19.7 µM; with U2OS, 7.23 µM; in the test with NCI-H1299 it was 29.7 µM; in the test on SAOS-2, 6.48 µM.
Turning to `COC(=O)C(c1ccc(Cl)cc1)N1C(=O)c2cccc(OC)c2NC(=S)C1c1ccc(Cl)cc1` (centres undefined), the IC50 in the test with A549, with U2OS, with NCI-H1299 and in the test with SAOS-2 was over 100 µM throughout. Also, the Ki in test [1] stood at 8.18 µM.
For the compound `COC(=O)C(c1ccc(Cl)cc1)N1C(=O)c2ccc(C(F)(F)F)cc2NC(=S)C1c1ccc(Cl)cc1` (centres undefined), the IC50 in the test on A549 turned out to be 26.9 µM; in the test on U2OS it was 5.69 µM; with NCI-H1299, 11.1 µM; with SAOS-2 it was 6.78 µM.
As to `COC(=O)C(c1ccc(F)cc1)N1C(=O)c2ccc(C(F)(F)F)cc2NC(=S)C1c1ccc(Cl)cc1` (centres undefined), the half-maximal inhibitory concentration (IC50) was determined as 9.44 µM in the test with A549, 11.8 µM with U2OS, 14 µM with NCI-H1299 and 13.7 µM with SAOS-2. Further, the Ki in test [1] came out at 3.02 µM.
For `COC(=O)C(c1ccc(Cl)cc1)N1C(=O)c2ccc(OC)cc2NC(=S)C1c1ccc(Cl)cc1` (centres undefined), in that order: over 100 µM, 35.3 µM, over 100 µM, 20 µM and over 100 µM.
Turning to `COC(=O)C(c1ccc(Cl)cc1)N1C(=O)c2cccc(C)c2NC(=S)C1c1ccc(Cl)cc1` (centres undefined), the IC50 is over 100 µM in the test on A549, 27.8 µM in the test on U2OS, 73.3 µM in the test on NCI-H1299 and 19.1 µM in the test with SAOS-2. In addition, in test [1], the Ki was over 100 µM.
`COC(=O)C(c1ccc(Cl)cc1)N1C(=O)c2cc(C)ccc2NC(=S)C1c1ccc(Cl)cc1` (centres undefined): the IC50 in the test on A549 is over 100 µM; in the test with U2OS, 32.7 µM; with NCI-H1299, 73.6 µM; in the test with SAOS-2, 25.5 µM. Moreover, the Ki in test [1] stood at 37.7 µM.
In the case of `COC(=O)C(c1ccc(Cl)cc1)N1C(=O)c2cc(F)ccc2NC(=S)C1c1ccc(Cl)cc1` (centres undefined), the IC50 came to 12.9 µM in the test with A549, 7.53 µM with U2OS, 14.5 µM with NCI-H1299 and 11.9 µM in the test with SAOS-2.
As to `COC(=O)C(c1ccc(F)cc1)N1C(=O)c2ccc(F)cc2NC(=S)C1c1ccc(Cl)cc1` (centres undefined), the IC50 in the test on A549 is 19.4 µM; in the test on U2OS it was 28 µM; with NCI-H1299, 25 µM; in the test on SAOS-2 it was 32.1 µM. Moreover, the Ki in test [1] was found to be 1.05 µM.
As for `COC(=O)C(c1ccc(Cl)cc1)N1C(=O)c2ccc(Br)cc2NC(=S)C1c1ccc(Cl)cc1` (centres undefined), the IC50 with A549 is over 100 µM; with U2OS, 35.7 µM; in the test with NCI-H1299, 35.4 µM; in the test on SAOS-2, 11 µM. The Ki in test [1] was 3.98 µM.
For `COC(=O)C(c1ccc(Cl)cc1)N1C(=O)c2ccc(Cl)cc2NC(=S)C1c1ccc(C(F)(F)F)cc1` (centres undefined), the IC50 in the test on A549 was 23.7 µM; with U2OS it was 27.4 µM; with NCI-H1299 it was 39.5 µM; with SAOS-2, 9.23 µM.
Consider `COC(=O)C(c1ccc(Cl)cc1)N1C(=O)c2ccc(Cl)cc2NC(=S)C1c1ccc(OC)cc1` (centres undefined), for which the IC50 in the test on A549 is over 100 µM; in the test with U2OS, 33.9 µM; in the test with NCI-H1299, over 100 µM; in the test with SAOS-2, over 100 µM. For the same compound, in test [1], the Ki was found to be 11.9 µM.
On to `COC(=O)C(c1ccc(Cl)cc1)N1C(=O)c2ccc(Cl)cc2N=C(SC)C1c1ccc(Cl)cc1` (centres undefined), for which the IC50 with A549 was over 100 µM; in the test on U2OS, 67.6 µM; in the test with NCI-H1299, over 100 µM; with SAOS-2, over 100 µM. Besides, the Ki in test [1] was over 100 µM.
Turning to `CCOC(=O)CSC1=Nc2cc(OC)ccc2C(=O)N(C(C(=O)OC)c2ccc(Cl)cc2)C1c1ccc(Cl)cc1` (centres undefined), the IC50 in the test on A549, in the test on U2OS, with NCI-H1299 and in the test with SAOS-2 was over 100 µM each time. The Ki in test [1] was 21.1 µM.
In the case of `COc1ccc(C2=N[C@@H](c3ccc(Cl)cc3)[C@@H](c3ccc(Cl)cc3)N2C(=O)N2CCNC(=O)C2)c(OC(C)C)c1` [NUTLIN-3], the IC50 in the test on A549 stood at 15 µM; with U2OS, 19.6 µM; in the test with NCI-H1299, 20.4 µM; with SAOS-2 it was 12.1 µM.
